Source: patent US8450525B2, “Histone deacetylase inhibitors” (Orchid Chemicals & Pharmaceuticals Limited, priority 2007, dated 2013)

Tests used:
U251 (glioma) cells = assay: Anti-cancer screen, growth inhibition (MTT); type: cell-based; conditions: Homo sapiens, U-251 cells, 48 hours of incubation
How it was run: (§1)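 MTT added for 3 h at 37° C, formazan dissolved in DMSO and A570 read. A T0 plate was measured at compound addition.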

NCI-H460 (lung) cells = assay: Anti-cancer screen, growth inhibition (MTT); type: cell-based; conditions: Homo sapiens, 48 hours of incubation
How it was run: as §1

HCT 116 (colon) cells = assay: Anti-cancer screen, growth inhibition (MTT); type: cell-based; conditions: Homo sapiens, HCT-116 cells, 48 hours of incubation
How it was run: as §1

[1] = biological target: T1, HDAC (Mouse Liver Extract); assay: HDAC inhibition assay using Boc-Lys(Ac)-AMC substrate, mouse liver enzyme; type: biochemical;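 for IC50: IC50 for inhibition of HDAC activity in mouse liver extract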
T1 construct: Mouse liver enzyme (10 mg/ml) was diluted 1:6 with HDAC buffer

recombinant HDAC1 enzyme = biological target: T2, recombinant HDAC1 enzyme (Homo sapiens, UniProt Q13547); assay: HDAC1 inhibitory activity, recombinant enzyme; type: biochemical; conditions: recombinant HDAC1 (BIOMOL); read-out: HDAC1 inhibition (IC50)
T2 construct: purchased BIOMOL, USA
Protocol: Assay was done in 96-well black microplate and total volume of the assay was 100 μL. Mouse liver enzyme (10 mg/ml) was diluted 1:6 with HDAC buffer. Enzyme cocktail was made of 10 μL of diluted enzyme and 30 μL of HDAC buffer. 40 μl of enzyme cocktail followed by 10 μL of test compound (1 μM and 10 μM) or buffer (control) was added to each well. The plate was pre-incubated at 37° C. for 5 minutes. The HDAC reaction was started by adding 50 μl of HDAC substrate Boc-Lys (Ac)-AMC (Bachem AG, Switzerland). The plate was incubated at 37° C. for 30 minutes. The reaction was stopped by adding 100 μL of Trypsin stop solution and incubating at 37° C. for 15-30 minutes. Measuring the fluorescence at excitation wavelength of 360 nm and emission wavelength of 460 nm monitored the release of AMC. Buffer alone and substrate alone served as blank. […] (Dennis Wegener et al, Anal. Biochem, 321, 2003, 202-208).
Since the benzamide type compounds are known to have potential for HDAC class 1 specificity, active compounds were tested for HDAC1 inhibitory activity. The assay was carried out, as previously described using recombinant HDAC1 enzyme (BIOMOL, USA) and following manufacturer's instructions.

HCT116 (colon) xenograft = type: in vivo; conditions: 100 mg/kg p.o. qdx21, HCT116 xenograft, vs vehicle treated control
Protocol: Experiments were carried out using 6-8 week old female […] SCID (Severe Combined Immune Deficient) mice. The mice were housed in Individually Ventilated Cages (IVC) at constant temperature (22±3° C.) and humidity (50±20%). They had free access to food and water. Tumors were obtained from ATCC, USA and maintained in vivo by subcutaneous (s.c.) passage of tumor fragments (app×30 mg) in healthy mice according to standard reported procedures. All the animal protocols were approved by the Institutional Animal Ethics Committee, ORLL, Chennai. Each experimental group included 6-8 mice bearing s.c. tumors. Tumors were implanted into the axillary region by puncturing using a Trocar, and tumor growth was monitored by measurement of tumor diameters with a Vernier caliper. Tumor Volume (TV) was calculated according to the following formula: TV (mm^3)=L×W^2×0.5,
Where L and W are the longest diameter and shortest diameter of the tumor, respectively. The compound treatment started when tumors were palpable (150-200 mm^3).
Test compound was administered by oral gavage in a volume of 5-10 ml/kg. […] Tumor size was measured twice every week and body weight was recorded daily prior to dosing.
Test compound (T) efficacy was assessed by calculating several parameters based on tumor volume (TV) with respect to untreated control (C). […]
Toxic effects of drug treatment were assessed by Body Weight Loss %. […]

acetylated Tubulin = assay: Tubulin acetylation, sandwich ELISA in HCT116 cell lysate; type: cell-based; conditions: HCT116 cells, 4 hours, vs control
Protocol: (§2) The incubation lasted 18 hours for p21 induction. After incubation, cell lysates were prepared in cell lysis buffer by sonication on ice. The lysates were collected after centrifugation and subjected to ELISA test procedure. 100 μL of each diluted cell lysate in dilution buffer (1:1) was added to appropriate capture antibody coated microwells and incubated overnight at 4° C. After washing, 100 μL of detection antibody was added for 1 hour at 37° C. After second washing, 100 μL of HRP-linked secondary antibody was added for 30 minutes at 37° C. Finally, after appropriate washing, 100 μL of TMB substrate was added for 10 minutes at 37° C. followed by 100 μL, of stop solution. The absorbance of individual wells was read using a spectrophotometer at 450 nm (A450).

p21 = p21 induction, sandwich ELISA in HCT116 cell lysate; type: cell-based; conditions: HCT116 cells, 18 hours, vs control
Protocol: as §2

Acetylated histone (H3) = assay: Histone (H3) acetylation, sandwich ELISA in HCT116 cell lysate; type: cell-based; conditions: HCT116 cells, 4 hours, vs control
Protocol: as §2

T2 sequence (Q13547 whole entry): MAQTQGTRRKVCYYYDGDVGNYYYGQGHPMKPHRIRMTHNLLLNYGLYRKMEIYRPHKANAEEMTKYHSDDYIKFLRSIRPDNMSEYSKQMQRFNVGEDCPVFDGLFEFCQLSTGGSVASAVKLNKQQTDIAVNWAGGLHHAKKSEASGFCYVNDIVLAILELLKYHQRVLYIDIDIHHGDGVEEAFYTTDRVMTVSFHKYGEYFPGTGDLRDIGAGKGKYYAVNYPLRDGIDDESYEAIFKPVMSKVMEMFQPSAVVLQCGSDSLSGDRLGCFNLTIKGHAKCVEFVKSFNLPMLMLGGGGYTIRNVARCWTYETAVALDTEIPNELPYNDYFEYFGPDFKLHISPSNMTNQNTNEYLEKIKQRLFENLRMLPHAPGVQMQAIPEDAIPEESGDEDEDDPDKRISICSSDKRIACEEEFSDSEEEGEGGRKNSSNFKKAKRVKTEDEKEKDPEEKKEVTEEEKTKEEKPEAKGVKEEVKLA

| SMILES | GI50 (U251 (glioma) cells) [µM] | GI50 (NCI-H460 (lung) cells) [µM] | GI50 (HCT 116 (colon) cells) [µM] | IC50 [1] [µM] | HDAC Inhibition % (1 μM) [1] [%] | HDAC Inhibition % (10 μM) [1] [%] | IC50 (recombinant HDAC1 enzyme) [µM] | maximum Tumor Volume Inhibition (TVI) (HCT116 (colon) xenograft) [%] | μ-Tubulin Acetylation (Fold Increase) (acetylated Tubulin; 1 μM) | μ-Tubulin Acetylation (Fold Increase) (acetylated Tubulin; 10 μM) | P21 Induction (Fold Increase) (p21; 1 μM) | P21 Induction (Fold Increase) (p21; 10 μM) | H3 Acetylation (Fold Increase) (Acetylated histone (H3); 1 μM) | H3 Acetylation (Fold Increase) (Acetylated histone (H3); 10 μM) |
| --- | --- | --- | --- | --- | --- | --- | --- | --- | --- | --- | --- | --- | --- | --- |
| Nc1ccccc1NC(=O)c1ccc(/C=C(/C(=O)NC2CC2)c2ccc3c(c2)OCO3)cc1 [Example 111, N-(2-Aminophenyl)-4-(3-(cyclopropylamino)-2-(1,3-benzodioxol-5-yl)-3-oxoprop-1-en-1-yl)benzamide] | 1.5 | 2.1 | 1.1 | 8 | 24.8 | 52.2 | 0.1 | – | – | – | – | – | – | – |
| Nc1ccccc1NC(=O)c1ccc(/C=C(/C(=O)NC2CC2)c2cccc(Cl)c2)cc1 [Example 114, N-(2-Aminophenyl)-4-(3-(cyclopropylamino)-2-(3-chlorophenyl)-3-oxoprop-1-en-1-yl)benzamide] | 4 | 5 | 0.4 | 5.5 | 34.5 | 59.0 | 0.044 | – | – | – | – | – | – | – |
| Nc1ccccc1NC(=O)c1ccc(/C=C(/C(=O)NC2CC2)c2cccc(F)c2)cc1 [Example 110, N-(2-Aminophenyl)-4-(3-(cyclopropylamino)-2-(3-fluorophenyl)-3-oxoprop-1-en-1-yl)benzamide] | 5 | 5.5 | 0.3 | 5 | 45.7 | 71.4 | 0.15 | – | – | – | – | – | – | – |
| Nc1ccccc1NC(=O)c1ccc(/C=C(/C(=O)NC2CC2)c2ccc(F)c(F)c2)cc1 [Example 115, N-(2-Aminophenyl)-4-(3-(cyclopropylamino)-2-(3,4-difluorophenyl)-3-oxoprop-1-en-1-yl)benzamide] | 15 | 6 | 0.1 | 8.3 | 31.1 | 50.1 | 0.068 | – | – | – | – | – | – | – |
| Nc1ccccc1NC(=O)c1ccc(/C=C(/C(=O)NC2CC2)c2ccc(F)cc2)cc1 [Example 105, (E)-N-(2-Aminophenyl)-4-(3-(cyclopropylamino)-2-(4-fluorophenyl)-3-oxoprop-1-en-1-yl)benzamide] | 4.8 | 0.9 | 1 | 15.8 | 46.0 | 71.3 | 0.077 | 39.4 | 2.22 | 8.98 | 1.05 | 2.50 | 1.24 | 6.67 |
| Nc1ccccc1NC(=O)c1ccc(C=C(C(=O)NC2CC2)c2ccccc2)cc1 [Example 107, N-(2-Aminophenyl)-4-(3-(cyclopropylamino)-2-phenyl-3-oxoprop-1-en-1-yl)benzamide] | 4.5 | 5 | 2 | 12 | 34.1 | 58.4 | 0.18 | – | – | – | – | – | – | – |
| Nc1ccccc1NC(=O)c1ccc(/C=C(/C(=O)NC2CC2)c2ccccc2Cl)cc1 [Example 112, N-(2-Aminophenyl)-4-(3-(cyclopropylamino)-2-(2-chlorophenyl)-3-oxoprop-1-en-1-yl)benzamide] | 20 | 1.1 | 6 | 4.5 | 29.9 | 55.7 | 0.049 | – | – | – | – | – | – | – |
| COc1ccc(/C(=C\c2ccc(C(=O)Nc3ccccc3N)cc2)C(=O)NC2CC2)cc1 [Example 116, N-(2-Aminophenyl)-4-(3-(cyclopropylamino)-2-(4-methoxyphenyl)-3-oxoprop-1-en-1-yl)benzamide] | 11 | 6.1 | 0.4 | 9 | 32.4 | 55.7 | 0.06 | – | – | – | – | – | – | – |
| Nc1ccccc1NC(=O)c1ccc(/C=C(/C(=O)NC2CC2)c2ccc(F)cc2Cl)cc1 [Example 117, N-(2-Aminophenyl)-4-(3-(cyclopropylamino)-2-(2-chloro-4-fluorophenyl)-3-oxoprop-1-en-1-yl)benzamide] | 3.8 | 10 | 68 | – | 36.2 | 66.6 | – | – | – | – | – | – | – | – |
| Nc1ccccc1NC(=O)/C=C/c1ccc(/C=C(/C(=O)NC2CC2)c2cccc(Cl)c2)cc1 [Example 66, N-Cyclopropyl-3-(4-((1E)-3-(2-aminophenylamino)-3-oxoprop-1-en-1-yl}phenyl)-2-(3-chlorophenyl)acrylamide] | > 100 | > 100 | > 100 | – | 41.6 | 72.4 | – | – | – | – | – | – | – | – |
| Nc1ccc(-c2ccccc2)cc1NC(=O)c1ccc(/C=C(/C(=O)NC2CC2)c2ccc(F)cc2)cc1 [Example 132] | > 100 | > 100 | > 100 | – | 23.5 | 25.3 | – | – | – | – | – | – | – | – |
| COc1ccc(/C(=C\c2ccc(C(=O)Nc3ccccc3N)cc2)C(=O)NC2CC2)c(OC)c1 [Example 120, N-(2-Aminophenyl)-4-(3-(cyclopropylamino)-2-(2,4-dimethoxyphenyl)-3-oxoprop-1-en-1-yl)benzamide] | 10 | 21 | 10.5 | – | 36.9 | 59.3 | – | – | – | – | – | – | – | – |
| O=C(/C=C/c1ccc(/C=C(/C(=O)N2CCOCC2)c2ccc(F)cc2)cc1)NO [Example 15] | 10 | 10 | 12 | – | 96.3 | 99.3 | – | – | – | – | – | – | – | – |
| O=C(/C=C/c1ccc(/C=C(/C(=O)N2CCOCC2)c2ccc(F)cc2)cc1)NCCCCCC(=O)NO [Example 86, 6-((1E)-3-(4-(3-(Morpholino)-2-(4-fluorophenyl)-3-oxoprop-1-enyl)phenyl)acrylamido)-N-hydroxyhexanamide] | 10.5 | 50 | 19 | – | 95.6 | 98.6 | – | – | – | – | – | – | – | – |
| CN(C)C(=O)/C(=C/c1ccc(/C=C/C(=O)Nc2ccccc2N)cc1)c1ccc(F)cc1 [Example 60, 3-(4-((1E)-3-(2-Aminophenylamino)-3-oxoprop-1-en-1-yl)phenyl)-2-(4-fluorophenyl)-N,N-dimethylacrylamide] | 22 | 29 | 23 | – | 28.3 | 34.2 | – | – | – | – | – | – | – | – |
